These results are taken from ChEMBL document CHEMBL5303573, “Mapping human microbiome drug metabolism by gut bacteria and their genes” (Nature, 2019).

One data set can be described thus: The drug is tested on Blautia hansenii strain: DSM20583 for biotransformation. The drug concentrations were measured before and after a 12-h incubation by liquid-chromatography-coupled mass spectrometry (LC–MS). The following applies: 2 µM.
In the case of `CCN(CC)CCOCCOC(=O)C1(c2ccccc2)CCCC1.O=C(O)CC(O)(CC(=O)O)C(=O)O` [CARBETAPENTANE CITRATE], the “Bacterial Biotransformation” value is on record as “Compound metabolized”.

For `CC(NC(C)(C)C)C(=O)c1cccc(Cl)c1` (configuration not stated) [BUPROPION], the “Bacterial Biotransformation” value is “Compound NOT metabolized”.

For a further data set the following is noted: bacteroides thetaiotaomicron, 12 h, 2 µM.
Description: The drug is tested on Bacteroides thetaiotaomicron strain: 7330 for biotransformation. The drug concentrations were measured before and after a 12-h incubation by liquid-chromatography-coupled mass spectrometry (LC–MS)
For the molecule `CCN(CC)CCOCCOC(=O)C1(c2ccccc2)CCCC1.O=C(O)CC(O)(CC(=O)O)C(=O)O` [CARBETAPENTANE CITRATE], the “Bacterial Biotransformation” value was “Compound metabolized”.

For `CC(NC(C)(C)C)C(=O)c1cccc(Cl)c1` (configuration not stated) [BUPROPION], the “Bacterial Biotransformation” value is reported as “Compound NOT metabolized”.

A further data set is described as follows: The drug is tested on Dorea formicigenerans strain: ATCC27755 for biotransformation. The drug concentrations were measured before and after a 12-h incubation by liquid-chromatography-coupled mass spectrometry (LC–MS). To be noted: 2 µM.
For the molecule `CCN(CC)CCOCCOC(=O)C1(c2ccccc2)CCCC1.O=C(O)CC(O)(CC(=O)O)C(=O)O` [CARBETAPENTANE CITRATE], the “Bacterial Biotransformation” value is “Compound metabolized”.

Turning to `CC(NC(C)(C)C)C(=O)c1cccc(Cl)c1` (configuration not stated) [BUPROPION], the “Bacterial Biotransformation” value was “Compound NOT metabolized”.

A short description of a further data set: The drug is tested on Bifidobacterium breve strain: DSM20213 for biotransformation. The drug concentrations were measured before and after a 12-h incubation by liquid-chromatography-coupled mass spectrometry (LC–MS). To be noted: 2 µM.
Turning to `CCN(CC)CCOCCOC(=O)C1(c2ccccc2)CCCC1.O=C(O)CC(O)(CC(=O)O)C(=O)O` [CARBETAPENTANE CITRATE], the “Bacterial Biotransformation” value is “Compound metabolized”.

`CC(NC(C)(C)C)C(=O)c1cccc(Cl)c1` (configuration not stated) [BUPROPION]: the “Bacterial Biotransformation” value was “Compound NOT metabolized”.

The nature of another data set: The drug is tested on Subdoligranulum variabile strain: DSM15176 for biotransformation. The drug concentrations were measured before and after a 12-h incubation by liquid-chromatography-coupled mass spectrometry (LC–MS). The following applies: 2 µM.
Regarding `CCN(CC)CCOCCOC(=O)C1(c2ccccc2)CCCC1.O=C(O)CC(O)(CC(=O)O)C(=O)O` [CARBETAPENTANE CITRATE], the “Bacterial Biotransformation” value was “Compound metabolized”.

In the case of `CC(NC(C)(C)C)C(=O)c1cccc(Cl)c1` (configuration not stated) [BUPROPION], the “Bacterial Biotransformation” value is “Compound NOT metabolized”.

The nature of another data set: The drug is tested on Escherichia coli strain: BW25113 for biotransformation. The drug concentrations were measured before and after a 12-h incubation by liquid-chromatography-coupled mass spectrometry (LC–MS). To be noted: 2 µM.
Take `CCN(CC)CCOCCOC(=O)C1(c2ccccc2)CCCC1.O=C(O)CC(O)(CC(=O)O)C(=O)O` [CARBETAPENTANE CITRATE]: the “Bacterial Biotransformation” value was “Compound metabolized”.

On to `CC(NC(C)(C)C)C(=O)c1cccc(Cl)c1` (configuration not stated) [BUPROPION], for which the “Bacterial Biotransformation” value is reported as “Compound metabolized”.

For the next data set the following is noted: roseburia intestinalis, 12 h, 2 µM.
Description: The drug is tested on Roseburia intestinalis strain: L1-82 for biotransformation. The drug concentrations were measured before and after a 12-h incubation by liquid-chromatography-coupled mass spectrometry (LC–MS)
Regarding `CCN(CC)CCOCCOC(=O)C1(c2ccccc2)CCCC1.O=C(O)CC(O)(CC(=O)O)C(=O)O` [CARBETAPENTANE CITRATE], the “Bacterial Biotransformation” value is on record as “Compound metabolized”.

For a further data set the following is noted: victivallis vadensis, 12 h, 2 µM.
Description: The drug is tested on Victivallis vadensis strain: ATCC BAA-548 for biotransformation. The drug concentrations were measured before and after a 12-h incubation by liquid-chromatography-coupled mass spectrometry (LC–MS)
For the molecule `CCN(CC)CCOCCOC(=O)C1(c2ccccc2)CCCC1.O=C(O)CC(O)(CC(=O)O)C(=O)O` [CARBETAPENTANE CITRATE], the “Bacterial Biotransformation” value is reported as “Compound metabolized”.

Turning to `CC(NC(C)(C)C)C(=O)c1cccc(Cl)c1` (configuration not stated) [BUPROPION], the “Bacterial Biotransformation” value was “Compound NOT metabolized”.

A short description of the next data set: The drug is tested on Bacteroides sp. WH2 strain: WH2 for biotransformation. The drug concentrations were measured before and after a 12-h incubation by liquid-chromatography-coupled mass spectrometry (LC–MS). The following applies: bacteroides sp. wh2, 12 h, 2 µM.
As to `CCN(CC)CCOCCOC(=O)C1(c2ccccc2)CCCC1.O=C(O)CC(O)(CC(=O)O)C(=O)O` [CARBETAPENTANE CITRATE], the “Bacterial Biotransformation” value is on record as “Compound metabolized”.

As to `CC(NC(C)(C)C)C(=O)c1cccc(Cl)c1` (configuration not stated) [BUPROPION], the “Bacterial Biotransformation” value is “Compound NOT metabolized”.

The next data set is described as follows: The drug is tested on Blautia luti strain: DSM14534 for biotransformation. The drug concentrations were measured before and after a 12-h incubation by liquid-chromatography-coupled mass spectrometry (LC–MS). The format is ADME. Also on record: dose 2 uM, timepoint 0 vs 12 hours. The following applies: 2 µM.
Regarding `CCN(CC)CCOCCOC(=O)C1(c2ccccc2)CCCC1.O=C(O)CC(O)(CC(=O)O)C(=O)O` [CARBETAPENTANE CITRATE], the “Bacterial Biotransformation” value is “Compound metabolized”.

In the case of `CC(NC(C)(C)C)C(=O)c1cccc(Cl)c1` (configuration not stated) [BUPROPION], the “Bacterial Biotransformation” value was “Compound NOT metabolized”.

The next data set in a line: The drug is tested on Collinsella intestinalis strain: DSM13280 for biotransformation. The drug concentrations were measured before and after a 12-h incubation by liquid-chromatography-coupled mass spectrometry (LC–MS). To be noted: 2 µM.
Regarding `CCN(CC)CCOCCOC(=O)C1(c2ccccc2)CCCC1.O=C(O)CC(O)(CC(=O)O)C(=O)O` [CARBETAPENTANE CITRATE], the “Bacterial Biotransformation” value is on record as “Compound metabolized”.

Turning to `CC(NC(C)(C)C)C(=O)c1cccc(Cl)c1` (configuration not stated) [BUPROPION], the “Bacterial Biotransformation” value is “Compound NOT metabolized”.

The nature of another data set: The drug is tested on Clostridium asparagiforme strain: DSM15981 for biotransformation. The drug concentrations were measured before and after a 12-h incubation by liquid-chromatography-coupled mass spectrometry (LC–MS). In kind it is ADME. More on the design: dose 2 uM, timepoint 0 vs 12 hours. The following applies: enterocloster asparagiformis, 2 µM.
`CCN(CC)CCOCCOC(=O)C1(c2ccccc2)CCCC1.O=C(O)CC(O)(CC(=O)O)C(=O)O` [CARBETAPENTANE CITRATE]: the “Bacterial Biotransformation” value is given as “Compound metabolized”.

Turning to `CC(NC(C)(C)C)C(=O)c1cccc(Cl)c1` (configuration not stated) [BUPROPION], the “Bacterial Biotransformation” value is given as “Compound NOT metabolized”.

Another data set is described as follows: The drug is tested on Eubacterium ventriosum strain: ATCC27560 for biotransformation. The drug concentrations were measured before and after a 12-h incubation by liquid-chromatography-coupled mass spectrometry (LC–MS). In kind it is ADME. More on the design: dose 2 uM, timepoint 0 vs 12 hours. To be noted: 2 µM.
In the case of `CCN(CC)CCOCCOC(=O)C1(c2ccccc2)CCCC1.O=C(O)CC(O)(CC(=O)O)C(=O)O` [CARBETAPENTANE CITRATE], the “Bacterial Biotransformation” value is given as “Compound metabolized”.

The conditions of another data set: segatella copri, 12 h, 2 µM.
Description: The drug is tested on Prevotella copri strain: DSM18205 for biotransformation. The drug concentrations were measured before and after a 12-h incubation by liquid-chromatography-coupled mass spectrometry (LC–MS)
As for `CCN(CC)CCOCCOC(=O)C1(c2ccccc2)CCCC1.O=C(O)CC(O)(CC(=O)O)C(=O)O` [CARBETAPENTANE CITRATE], the “Bacterial Biotransformation” value was “Compound metabolized”.

As for `CC(NC(C)(C)C)C(=O)c1cccc(Cl)c1` (configuration not stated) [BUPROPION], the “Bacterial Biotransformation” value is on record as “Compound NOT metabolized”.

Another data set can be described thus: The drug is tested on Bacteroides fragilis strain: HMW610 for biotransformation. The drug concentrations were measured before and after a 12-h incubation by liquid-chromatography-coupled mass spectrometry (LC–MS). To be noted: 2 µM.
With `CC(NC(C)(C)C)C(=O)c1cccc(Cl)c1` (configuration not stated) [BUPROPION], the “Bacterial Biotransformation” value is given as “Compound NOT metabolized”.

The conditions of the next data set: bacteroides eggerthii, 12 h, 2 µM.
Description: The drug is tested on Bacteroides eggerthii strain: DSM20697 for biotransformation. The drug concentrations were measured before and after a 12-h incubation by liquid-chromatography-coupled mass spectrometry (LC–MS)
As for `CCN(CC)CCOCCOC(=O)C1(c2ccccc2)CCCC1.O=C(O)CC(O)(CC(=O)O)C(=O)O` [CARBETAPENTANE CITRATE], the “Bacterial Biotransformation” value is recorded as “Compound metabolized”.

Consider `CC(NC(C)(C)C)C(=O)c1cccc(Cl)c1` (configuration not stated) [BUPROPION], for which the “Bacterial Biotransformation” value was “Compound metabolized”.

The conditions of another data set: akkermansia muciniphila, 12 h, 2 µM.
Description: The drug is tested on Akkermansia muciniphila strain: ATCC BAA-835 for biotransformation. The drug concentrations were measured before and after a 12-h incubation by liquid-chromatography-coupled mass spectrometry (LC–MS)
On to `CCN(CC)CCOCCOC(=O)C1(c2ccccc2)CCCC1.O=C(O)CC(O)(CC(=O)O)C(=O)O` [CARBETAPENTANE CITRATE], for which the “Bacterial Biotransformation” value is reported as “Compound metabolized”.

In the case of `CC(NC(C)(C)C)C(=O)c1cccc(Cl)c1` (configuration not stated) [BUPROPION], the “Bacterial Biotransformation” value was “Compound NOT metabolized”.

The conditions of another data set: bacteroides thetaiotaomicron, 12 h, 2 µM. The source holds these as a separate data set.
Description: The drug is tested on Bacteroides thetaiotaomicron strain: VPI-5482 for biotransformation. The drug concentrations were measured before and after a 12-h incubation by liquid-chromatography-coupled mass spectrometry (LC–MS)
As for `CCN(CC)CCOCCOC(=O)C1(c2ccccc2)CCCC1.O=C(O)CC(O)(CC(=O)O)C(=O)O` [CARBETAPENTANE CITRATE], the “Bacterial Biotransformation” value is listed as “Compound metabolized”.

Consider `CC(NC(C)(C)C)C(=O)c1cccc(Cl)c1` (configuration not stated) [BUPROPION], for which the “Bacterial Biotransformation” value is “Compound NOT metabolized”.

Another data set is described as follows: The drug is tested on Bacteroides vulgatus strain: ATCC8482 for biotransformation. The drug concentrations were measured before and after a 12-h incubation by liquid-chromatography-coupled mass spectrometry (LC–MS). To be noted: phocaeicola vulgatus, 2 µM.
As for `CCN(CC)CCOCCOC(=O)C1(c2ccccc2)CCCC1.O=C(O)CC(O)(CC(=O)O)C(=O)O` [CARBETAPENTANE CITRATE], the “Bacterial Biotransformation” value is recorded as “Compound metabolized”.

Turning to `CC(NC(C)(C)C)C(=O)c1cccc(Cl)c1` (configuration not stated) [BUPROPION], the “Bacterial Biotransformation” value is reported as “Compound NOT metabolized”.

The next data set can be described thus: The drug is tested on Bacteroides cellulosilyticus strain: DSM14838 for biotransformation. The drug concentrations were measured before and after a 12-h incubation by liquid-chromatography-coupled mass spectrometry (LC–MS). To be noted: 2 µM.
In the case of `CCN(CC)CCOCCOC(=O)C1(c2ccccc2)CCCC1.O=C(O)CC(O)(CC(=O)O)C(=O)O` [CARBETAPENTANE CITRATE], the “Bacterial Biotransformation” value is “Compound metabolized”.

With `CC(NC(C)(C)C)C(=O)c1cccc(Cl)c1` (configuration not stated) [BUPROPION], the “Bacterial Biotransformation” value is on record as “Compound NOT metabolized”.
